This is an account of results in patent US7816408B2, “Calcium receptor active compounds” (NPS Pharmaceuticals, Inc., priority 2002, dated 2010).

For one test, the target named is T1, human calcium receptor (Homo sapiens, UniProt P41180).
T1 construct: expressed in transfected cells; host or cells: HEK293
T1 sequence (P41180 20-1078): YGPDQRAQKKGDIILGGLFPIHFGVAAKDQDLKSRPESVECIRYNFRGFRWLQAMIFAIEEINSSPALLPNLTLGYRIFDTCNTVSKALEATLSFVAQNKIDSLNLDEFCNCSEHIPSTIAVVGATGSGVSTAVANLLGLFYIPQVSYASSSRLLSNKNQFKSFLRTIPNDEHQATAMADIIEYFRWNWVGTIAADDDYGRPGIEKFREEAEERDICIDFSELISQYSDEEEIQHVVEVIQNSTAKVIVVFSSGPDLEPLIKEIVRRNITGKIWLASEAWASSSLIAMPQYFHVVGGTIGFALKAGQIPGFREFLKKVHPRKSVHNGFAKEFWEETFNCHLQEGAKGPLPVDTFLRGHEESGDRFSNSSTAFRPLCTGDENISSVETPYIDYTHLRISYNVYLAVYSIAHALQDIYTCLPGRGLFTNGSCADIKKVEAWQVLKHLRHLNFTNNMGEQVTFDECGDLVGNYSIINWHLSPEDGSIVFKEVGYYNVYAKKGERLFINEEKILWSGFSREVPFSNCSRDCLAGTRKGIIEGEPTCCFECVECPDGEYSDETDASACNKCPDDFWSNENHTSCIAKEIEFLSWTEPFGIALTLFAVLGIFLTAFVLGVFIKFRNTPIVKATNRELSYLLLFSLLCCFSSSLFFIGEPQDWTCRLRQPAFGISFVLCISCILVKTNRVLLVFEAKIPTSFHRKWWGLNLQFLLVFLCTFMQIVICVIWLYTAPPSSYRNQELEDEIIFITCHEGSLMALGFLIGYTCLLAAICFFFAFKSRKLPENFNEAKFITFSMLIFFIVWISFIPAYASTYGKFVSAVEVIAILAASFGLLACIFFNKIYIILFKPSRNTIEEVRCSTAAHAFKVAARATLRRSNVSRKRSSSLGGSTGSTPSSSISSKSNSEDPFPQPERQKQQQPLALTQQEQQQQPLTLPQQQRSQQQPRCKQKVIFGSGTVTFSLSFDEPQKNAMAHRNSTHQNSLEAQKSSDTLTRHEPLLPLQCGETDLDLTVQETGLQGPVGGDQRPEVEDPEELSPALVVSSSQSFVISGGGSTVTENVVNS
In words: Activity on calcium receptors: fluo-3 fluorescence in HEK293 cells transfected with human calcium receptor gene. In kind it is cell-based. The conditions noted are these: HEK293 cells transfected with plasmid pHuPCaR4.0 (human calcium receptor gene), loaded with fluo-3; 1 mM CaCl2, 1 mM MgCl2. On the procedure: The activities of the compounds of the present invention on calcium receptors were measured. The measurement was performed in accordance with the method described in Example 4 of Nemeth et al., PCT/US95/13704 (International Publication No. WO96/12697). In brief, HEK293 cells were transfected with a plasmid pHuPCaR4.0 containing a human calcium receptor gene and loaded with fluo-3. The loading was carried out by incubating the cells at 37° C. for 1 hour in Dulbecco's modified Eagle's medium which contained about 5 μM of fluo-3/AM and had been buffered with 20 mM HEPES. Next, the cells were rinsed with Hank's balanced salt solution which contained 1 mM CaCl2 and 1 mM MgCl2 and had been buffered with 20 mM HEPES. Then each test compound was added to the cells and the fluorescence was measured with the use of an excitation wavelength of 485 nm and an emission wavelength of 540 nm.

The test system of a further test is normal male SD rats. Put plainly: Plasma Ca^2+ level of rats after single oral administration. In kind it is in vivo. The conditions noted are these: rat, mean of six animals, vehicle 10% cyclodextrin (** 1% sodium-CMC); for Plasma Ca^2+ (mmol/l) 1 hr: 1 hr after single oral dose 30 μmol/kg; for Plasma Ca^2+ (mmol/l) 2 hr: 2 hr after single oral dose 30 μmol/kg; for Plasma Ca^2+ (mmol/l) 4 hr: 4 hr after single oral dose 30 μmol/kg; for Plasma Ca^2+ (mmol/l) 8 hr: 8 hr after single oral dose 30 μmol/kg. On the procedure: The compound of the present invention was administered to rats so as to examine the effects of the compound on the plasma calcium ion level and serum PTH level. The test was performed by orally administering single dose of the compound of the invention or a control compound to normal male SD rats with six animals in each group.
To the group 1 was administered as a control a 10% cyclodextrin aqueous solution in a dose of 2.5 ml/kg. To the group 2 was administered as a reference (R)-N-(3-(2-chlorophenyl)propyl)-1-(3-methoxyphenyl)ethylamine (KRN568) dissolved in a 10% cyclodextrin aqueous solution in a dose of 30 μmol/kg. To the group 3 was administered the compound of the present invention dissolved in a 10% cyclodextrin aqueous solution in a dose of 30 μmol/kg, provided that 1% sodium-CMC aqueous solution was used in place of 10% cyclodextrin aqueous solution for the compounds marked with ** in Table 2.
Blood of each rat was collected from the tail tip before the administration and 30 minutes and 1, 2, 4, 8 and 24 hours thereafter (or at the time indicated in Table 2), and the plasma Ca^2+ level and serum PTH level were measured. The data of the serum PTH level were statistically processed by the multiple comparison analysis in accordance with Steel's calibration by using the group 1 as the control.

pEC50: −log10 of the molar value.

Usually pEC50 stands for the EC50 on a negative log10 scale, so that one unit is a factor of ten. In the case of `CCCCCCOc1cccc(C(C)NCCSc2cc(Cl)ccc2Cl)c1` (racemic) [Compound K-2255, (±)-N-(1-(3-n-hexyloxyphenyl)ethyl)-2-(2′,5′-dichlorophenylthio)ethylamine], the pEC50 on human calcium receptor was 5.02. Moreover, in the test with normal male SD rats, the “Plasma Ca^2+ (mmol/l) 1 hr” value is 1.328 mmol/L, the “Plasma Ca^2+ (mmol/l) 2 hr” value was 1.212 mmol/L, the “Plasma Ca^2+ (mmol/l) 4 hr” value turned out to be 1.177 mmol/L and the “Plasma Ca^2+ (mmol/l) 8 hr” value was determined as 1.232 mmol/L.
Take `CC(NCCSc1cc(Cl)ccc1Cl)c1cccc(OCc2ccc(Cl)cc2)c1` (racemic) [Compound K-2258, (±)-N-(1-(3-(4-chlorobenzyloxy)phenyl)ethyl)-2-(2′,5′-dichlorophenylthio)ethylamine]: the pEC50 on human calcium receptor was 6.42. In the test on normal male SD rats, the “Plasma Ca^2+ (mmol/l) 1 hr” value is 1.317 mmol/L, the “Plasma Ca^2+ (mmol/l) 2 hr” value turned out to be 1.227 mmol/L, the “Plasma Ca^2+ (mmol/l) 4 hr” value turned out to be 1.133 mmol/L and the “Plasma Ca^2+ (mmol/l) 8 hr” value was determined as 1.207 mmol/L.
As to `C[C@@H](NCCCCCSc1ccc(Cl)cc1)c1cccc2ccccc12` [Compound K-2027, N-{5-[(4-chlorophenyl)thio]pentyl}-N-[(1R)-1-(1-naphthyl)ethyl]amine], the negative logarithm of the EC50 (pEC50) at human calcium receptor is 6.41. Also, in the test on normal male SD rats, the “Plasma Ca^2+ (mmol/l) 1 hr” value is 1.197 mmol/L, the “Plasma Ca^2+ (mmol/l) 2 hr” value worked out at 1.102 mmol/L, the “Plasma Ca^2+ (mmol/l) 4 hr” value amounted to 0.995 mmol/L and the “Plasma Ca^2+ (mmol/l) 8 hr” value stood at 1.048 mmol/L. Also, the “Plasma Ca^2+ (mmol/l) 24 hr” value in the test with normal male SD rats (24 hr after single oral dose 30 μmol/kg) came out at 1.363 mmol/L.
Turning to `C[C@@H](NCCCCCSc1ccc(F)cc1)c1cccc2ccccc12` [Compound K-2052, N-{5-[(4-fluorophenyl)thio]pentyl}-N-[(1R)-1-(1-naphthyl)ethyl]amine], the negative-log EC50 (pEC50) on human calcium receptor was 5.24. In the test with normal male SD rats, the “Plasma Ca^2+ (mmol/l) 1 hr” value turned out to be 1.283 mmol/L, the “Plasma Ca^2+ (mmol/l) 2 hr” value stood at 1.187 mmol/L, the “Plasma Ca^2+ (mmol/l) 4 hr” value was 1.087 mmol/L and the “Plasma Ca^2+ (mmol/l) 8 hr” value is 1.185 mmol/L.
In the case of `C[C@@H](NCCCCSc1cccc(C(F)(F)F)c1)c1cccc2ccccc12` [Compound K-2087, N-[(1R)-1-(1-naphthyl)ethyl]-N-(4-{[3-(trifluoromethyl)phenyl]thio}butyl)amine], the pEC50 at human calcium receptor was 7.06. Besides, in the test with normal male SD rats, the “Plasma Ca^2+ (mmol/l) 1 hr” value was found to be 1.325 mmol/L, the “Plasma Ca^2+ (mmol/l) 2 hr” value came to 1.243 mmol/L, the “Plasma Ca^2+ (mmol/l) 4 hr” value came to 1.197 mmol/L and the “Plasma Ca^2+ (mmol/l) 8 hr” value stood at 1.255 mmol/L.
For `C[C@@H](NCCCSc1ccc(C(F)(F)F)cc1)c1cccc2ccccc12` [Compound K-2240, N-[(1R)-1-(1-naphthyl)ethyl]-N-(3-{[4-(trifluoromethyl)phenyl]thio}propyl)amine], the negative logarithm of the EC50 (pEC50) at human calcium receptor is 6.44. Moreover, in the test with normal male SD rats, the “Plasma Ca^2+ (mmol/l) 1 hr” value turned out to be 1.302 mmol/L, the “Plasma Ca^2+ (mmol/l) 2 hr” value is 1.272 mmol/L, the “Plasma Ca^2+ (mmol/l) 4 hr” value was determined as 1.175 mmol/L and the “Plasma Ca^2+ (mmol/l) 8 hr” value was determined as 1.230 mmol/L.
In the case of `C[C@@H](NCCC(=O)N(Cc1ccccc1)Cc1ccc(Cl)cc1)c1cccc2ccccc12` [Compound K-2247, N1-benzyl-N1-(4-chlorobenzyl)-3-{[(1R)-1-(1-naphthyl)ethyl]amino}propanamide], on human calcium receptor, the pEC50 was 6.89. Further, in the test on normal male SD rats, the “Plasma Ca^2+ (mmol/l) 1 hr” value was 1.378 mmol/L, the “Plasma Ca^2+ (mmol/l) 2 hr” value was determined as 1.298 mmol/L, the “Plasma Ca^2+ (mmol/l) 4 hr” value was 1.175 mmol/L and the “Plasma Ca^2+ (mmol/l) 8 hr” value stood at 1.217 mmol/L.
For the compound `C[C@@H](NCCC(=O)N(Cc1ccccc1)Cc1ccc(Cl)c(Cl)c1)c1cccc2ccccc12` [Compound K-2250, N1-benzyl-N1-(3,4-dichloro-benzyl)-3-{[(1R)-1-(1-naphthyl)ethyl]amino}propanamide], the negative-log EC50 (pEC50) at human calcium receptor is 7.12. Also, in the test on normal male SD rats, the “Plasma Ca^2+ (mmol/l) 1 hr” value worked out at 1.327 mmol/L, the “Plasma Ca^2+ (mmol/l) 2 hr” value is 1.225 mmol/L, the “Plasma Ca^2+ (mmol/l) 4 hr” value worked out at 1.122 mmol/L and the “Plasma Ca^2+ (mmol/l) 8 hr” value amounted to 1.203 mmol/L.
Consider `C[C@@H](NCCC(=O)N(Cc1ccc(Cl)cc1)Cc1ccccc1Cl)c1cccc2ccccc12` [Compound K-2262, N1-(2-chlorobenzyl)-N1-(4-chlorobenzyl)-3-{[(1R)-1-(1-naphthyl)ethyl]amino}propanamide], for which the negative logarithm of the EC50 (pEC50) on human calcium receptor was 7.08. In addition, in the test on normal male SD rats, the “Plasma Ca^2+ (mmol/l) 1 hr” value worked out at 1.390 mmol/L, the “Plasma Ca^2+ (mmol/l) 2 hr” value came out at 1.260 mmol/L, the “Plasma Ca^2+ (mmol/l) 4 hr” value came to 1.138 mmol/L and the “Plasma Ca^2+ (mmol/l) 8 hr” value worked out at 1.142 mmol/L.
Regarding `C[C@@H](NCCCCSc1ccc(F)cc1)c1cccc2ccccc12` [Compound K-2263, N-{4-[(4-fluorophenyl)thio]butyl}-N-[(1R)-1-(1-naphthyl)ethyl]amine], on human calcium receptor, the negative-log EC50 (pEC50) was 6.96. In the test on normal male SD rats, the “Plasma Ca^2+ (mmol/l) 1 hr” value stood at 1.273 mmol/L, the “Plasma Ca^2+ (mmol/l) 2 hr” value stood at 1.237 mmol/L, the “Plasma Ca^2+ (mmol/l) 4 hr” value stood at 1.212 mmol/L and the “Plasma Ca^2+ (mmol/l) 8 hr” value was determined as 1.308 mmol/L.
Turning to `CC(NCCSc1cccc(C(F)(F)F)c1)c1cccc2ccccc12` (stereo not shown) [Compound K-2275], on human calcium receptor, the pEC50 is 6.57.
As for `CC(NCCSc1cc(Cl)c(Cl)cc1Cl)c1cccc2ccccc12` (stereo not shown) [Compound K-2295], the negative-log EC50 (pEC50) on human calcium receptor was 5.87.
As to `COc1ccc(CN(Cc2ccc(O)cc2)C(=O)CCNC(C)c2cccc3ccccc23)cc1` (stereo not shown) [Compound K-2312], the pEC50 on human calcium receptor was 7.10.
On to `COc1ccc(SCCCCN[C@H](C)c2cccc3ccccc23)cc1` [Compound K-2314], for which the negative-log EC50 (pEC50) at human calcium receptor is 6.54.
Regarding `Cc1ccc(C)c(SCCCCCCCCCCCCNC(C)c2cccc3ccccc23)c1` (stereo not shown) [Compound S-16], the negative logarithm of the EC50 (pEC50) on human calcium receptor is 6.96.
In the case of `Cc1ccc(SCCCCNC(C)c2cccc3ccccc23)cc1C` (stereo not shown) [Compound S-52], the pEC50 on human calcium receptor was 6.80.
The same measure, in the same setting: the value for `Cc1cc(C)cc(SCCNC(C)c2cccc3ccccc23)c1` (stereo not shown) [Compound S-64] was 7.01.
Turning to `Cc1cc(C)cc(SCCCCCCCN[C@H](C)c2cccc3ccccc23)c1` [Compound S-69], the pEC50 at human calcium receptor is 6.51.
On to `CC(NCCCCSc1ccc(Br)cc1)c1cccc2ccccc12` (stereo not shown) [Compound S-80], for which the pEC50 on human calcium receptor is 7.00.
`C[C@@H](NCCCCCCCSc1c(F)c(F)cc(F)c1F)c1cccc2ccccc12` [Compound S-165]: at human calcium receptor, the negative-log EC50 (pEC50) is 6.82.
On to `CC(NCCCCCCCSc1c(Cl)c(Cl)nc(Cl)c1Cl)c1cccc2ccccc12` (stereo not shown) [Compound S-193], for which the pEC50 on human calcium receptor is 7.18.
`C[C@@H](NCCCCCCCCCCCCSc1c(F)c(F)c(C(F)(F)F)c(F)c1F)c1cccc2ccccc12` [Compound S-201]: the pEC50 at human calcium receptor was 6.74.
Take `CC(C)c1ccccc1SCCNC(C)c1cccc2ccccc12` (stereo not shown) [Compound S-202]: the negative logarithm of the EC50 (pEC50) at human calcium receptor was 6.82.
